Here are results for 23 compounds from US9096571B2, “Picolinamide and pyrimidine-4-carboxamide compounds, process for preparing and pharmaceutical composition comprising the same” (SK CHEMICALS CO., LTD., priority 2010, dated 2015).

One assay has as its target T1, 11β-HSD1 (Homo sapiens, UniProt P28845).
T1 construct: host or cells: human subjects in vivo
Particulars: healthy candidates and type 2 diabetic patients, but not the obese; cited from earlier work.

Assay [1] addresses T2, human-derived 11β-HSD1 (h11β-HSD1) enzyme (Homo sapiens, UniProt P28845).
T2 construct: expressed in transfected cells; host or cells: HEK-293 cells, transfected with Fugene 6
As to the kind of experiment: Cell assay on 11β-HSD1 (HEK-293 cells overexpressing h11β-HSD1, cortisone to cortisol, cortisol ELISA). It is filed as cell-based. Particulars: HEK293, HEK-293 cells transfected with h11β-HSD1; for inhibition at 10 µM: 10 μM compound, read-out: hHSD1 inhibiting activity, % inhibition at 10 μM; for inhibition at 100 µM: 100 μM compound, read-out: hHSD1 inhibiting activity, % inhibition at 100 μM. On the procedure:
In order to investigate inhibitory effects of the compounds according to the present invention on activity of human-derived 11β-HSD1 (h11β-HSD1) enzyme, the following experiment was performed.
To assay the activity of the 11β-HSD1 enzyme, a recombinant DNA having h11β-HSD1 gene was introduced into an animal cell to induce overexpression of the enzyme [Arampatzis, S. J Mol. Endocrinol. […] First, HEK-293 cells were incubated using a cell incubator until they reached 70-80% confluency on a surface of the container. The recombinant DNA having h11β-HSD1 gene was mixed with Fugene 6, followed by reaction at room temperature for 1 hour. The resulting material was used to treat the cells, and thus DNA was injected into the cells. The next day, the cell supernatant was removed, followed by supplement of fresh medium, and then the cells were further incubated for 24 hours in the cell incubator.
When the cells were incubated at 70-80% confluency, the cells were detached with trypsin, and the number of cells was measured by using a Hemacytometer. The incubated liquid was diluted to contain 20,000 cells/ml, and 100 μl of the diluted liquid was plated onto each well of the 96-well plate. Following incubation for 24 hours, the compound dissolved in DMSO was diluted to 1/100 by the incubated liquid. 100 μl of the resulting compound-diluted liquid was dispensed into each well, and then incubated for 30 minutes.
The quantitative assay of cortisol generated in this reaction was performed by using a system provided from Assay Designs Inc. The resultant enzyme reactant was added to the plate coated with anti-mouse IgG, and then a specific antibody binding to the cortisol and alkaline phosphatase-bound cortisol are together input thereto, followed by reaction at room temperature for 2 hours. The contents in the wells after reaction were thrown away, and then washing was performed with a buffer solution consisting of surfactant and tris-buffered saline three times. After that, a p-nitrophenyl phosphate solution, which is a substrate for the alkaline phosphatase, was input thereto for coloring reaction, followed by reaction for 1 hour, and then the light absorbance at 405 nm was measured by using a plate reader.
In general terms: An ELISA detects its analyte on a solid surface through an enzyme-linked reagent.

T2 sequence (P28845 whole entry): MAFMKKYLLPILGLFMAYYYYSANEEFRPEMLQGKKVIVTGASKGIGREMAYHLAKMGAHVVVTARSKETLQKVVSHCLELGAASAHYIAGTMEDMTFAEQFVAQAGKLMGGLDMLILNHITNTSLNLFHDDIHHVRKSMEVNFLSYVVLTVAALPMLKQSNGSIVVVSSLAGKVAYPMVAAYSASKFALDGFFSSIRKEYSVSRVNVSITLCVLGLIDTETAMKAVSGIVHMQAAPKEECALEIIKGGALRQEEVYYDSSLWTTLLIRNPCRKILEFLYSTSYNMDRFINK
T1 sequence (P28845 whole entry): as above

As for `CC1(C)[C@@H](OC(=O)CCC(=O)O)CC[C@]2(C)[C@H]3C(=O)C=C4[C@@H]5C[C@@](C)(C(=O)O)CC[C@]5(C)CC[C@@]4(C)[C@]3(C)CC[C@@H]12` [Carbenoxolone], on 11β-HSD1, the “effect on insulin sensitivity” value is “improves insulin sensitivity”.
As a reminder, the inhibition is the share of the control response that was lost under treatment. As to `O=C(N[C@H]1C2CC3CC1C[C@](O)(C3)C2)c1cccc(N2CCC(c3ccccc3)CC2)n1` [Example 47], in assay [1], the inhibition at 10 µM was 36% and the inhibition at 100 µM is 96%.
For `O=C(N[C@H]1C2CC3CC1C[C@](O)(C3)C2)c1cccc(N2CCc3ccccc3C2)n1` [Example 60], in assay [1], the inhibition at 10 µM turned out to be 68% and the inhibition at 100 µM is 82%.
The corresponding values for `CC1CCCCN1c1cccc(C(=O)N[C@H]2C3CC4CC2C[C@](O)(C4)C3)n1` (stereo partly drawn) [Example 61] are 68% and 83%.
The corresponding values for `CS(=O)(=O)c1ccc(N2CCN(c3cccc(C(=O)N[C@H]4C5CC6CC4C[C@](O)(C6)C5)n3)CC2)cc1` [Example 77, N-((E)-5-hydroxyadamantan-2-yl)-6-(4-(4-(methylsulfonyl)phenyl)piperazin-1-yl)picolinamide] are 73% and 87%.
The corresponding values for `O=C(N[C@H]1C2CC3CC1C[C@](O)(C3)C2)c1cccc(N2CCN(c3ccc(F)cn3)CC2)n1` [Example 87] are 40% and 79%.
Turning to `Cc1ccc(N2CCN(c3cccc(C(=O)N[C@H]4C5CC6CC4C[C@](O)(C6)C5)n3)CC2)nc1` [Example 88], in assay [1], the inhibition at 10 µM was 40% and the inhibition at 100 µM came out at 84%.
For `O=C(N[C@H]1C2CC3CC1C[C@](O)(C3)C2)c1cccc(N2CCC(c3ccc(F)cn3)CC2)n1` [Example 97], in that order: 58% and 77%.
For the compound `Cc1ccc(C2CCN(c3cccc(C(=O)N[C@H]4C5CC6CC4C[C@](O)(C6)C5)n3)CC2)nc1` [Example 98], in assay [1], the inhibition at 10 µM was 38% and the inhibition at 100 µM was determined as 78%.
For `COc1ccc(N2CCN(c3cccc(C(=O)N[C@H]4C5CC6CC4C[C@](O)(C6)C5)n3)[C@H](C)C2)nc1` [Example 118], in that order: 64% and 84%.
On to `COc1ccc(N2CCN(c3cccc(C(=O)N[C@H]4C5CC6CC4C[C@](O)(C6)C5)n3)[C@H](C)C2)cn1` [Example 119], for which, in assay [1], the inhibition at 10 µM worked out at 65% and the inhibition at 100 µM came to 81%.
For `COc1ccc(N2CCCN(c3cccc(C(=O)N[C@H]4C5CC6CC4C[C@](O)(C6)C5)n3)CC2)c(F)c1` [Example 124], in assay [1], the inhibition at 10 µM came to 54% and the inhibition at 100 µM is 85%.
The corresponding values for `C[C@@H]1CN(c2ccc(N)nc2)CCN1c1cccc(C(=O)N[C@H]2C3CC4CC2C[C@](O)(C4)C3)n1` [Example 125, 6-((R)-4-(6-aminopyridin-3-yl)-2-methylpiperazin-1-yl)-N-((E)-5-hydroxyadamantan-2-yl)picolinamide] are 48% and 79%.
Take `COc1ccc(N2CCN(c3cccc(C(=O)N[C@H]4C5CC6CC4C[C@](O)(C6)C5)n3)[C@H](C)C2)cc1C(N)=O` [Example 150]: in assay [1], the inhibition at 10 µM turned out to be 76% and the inhibition at 100 µM was 87%.
The corresponding values for `CNC(=O)c1cc(N2CCN(c3cccc(C(=O)N[C@H]4C5CC6CC4C[C@](O)(C6)C5)n3)[C@H](C)C2)ccc1OC` [Example 151] are 75% and 85%.
The corresponding values for `C[C@@H]1CN(c2ccc(C(C)(C)O)cc2)CCN1c1cccc(C(=O)N[C@H]2C3CC4CC2C[C@](O)(C4)C3)n1` [Example 173, N-((E)-5-hydroxyadamantan-2-yl)-6-((R)-4-(4-(2-hydroxypropan-2-yl)phenyl)-2-methylpiperazin-1-yl)picolinamide] are 81% and 87%.
For `C[C@@H]1CN(c2ccc(OCC(N)=O)c(Cl)c2)CCN1c1cccc(C(=O)N[C@H]2C3CC4CC2C[C@](O)(C4)C3)n1` [Example 190, 6-((R)-4-(4-(2-amino-2-oxoethoxy)-3-chlorophenyl)-2-methylpiperazin-1-yl)-N-((E)-5-hydroxyadamantan-2-yl)picolinamide], in assay [1], the inhibition at 10 µM came out at 76% and the inhibition at 100 µM was found to be 89%.
For `C[C@@H]1CN(CC(C)(C)O)CCN1c1cccc(C(=O)N[C@H]2C3CC4CC2C[C@](O)(C4)C3)n1` [Example 192, 6-((R)-4-(2-hydroxy-2-methylpropyl)-2-methylpiperazin-1-yl)-N-((E)-5-hydroxyadamantan-2-yl)picolinamide], in that order: 41% and 85%.
The corresponding values for `C[C@@H]1CN(C2CC2)CCN1c1cccc(C(=O)N[C@H]2C3CC4CC2C[C@](O)(C4)C3)n1` [Example 196, 6-((R)-4-cyclopropyl-2-methylpiperazin-1-yl)-N-((E)-5-hydroxyadamantan-2-yl)picolinamide] are 64% and 86%.
For `C[C@@H]1CN(C2CCN(S(C)(=O)=O)CC2)CCN1c1cccc(C(=O)N[C@H]2C3CC4CC2C[C@](O)(C4)C3)n1` [Example 201, N-((E)-5-hydroxyadamantan-2-yl)-6-((R)-2-methyl-4-(1-(methylsulfonyl)piperidin-4-yl)piperazin-1-yl)picolinamide], in that order: 40% and 78%.
With `C[C@@H]1CN(S(C)(=O)=O)CCN1c1cccc(C(=O)N[C@H]2C3CC4CC2C[C@](O)(C4)C3)n1` [Example 204], in assay [1], the inhibition at 10 µM turned out to be 41% and the inhibition at 100 µM is 76%.
The corresponding values for `COc1ccc(N2CCN(c3nccc(C(=O)N[C@H]4C5CC6CC4C[C@](O)(C6)C5)n3)[C@H](C)C2)c(F)c1` [Example 231] are 42% and 78%.
For `C[C@H]1CN(c2ccc(S(C)(=O)=O)cc2F)CCN1c1nccc(C(=O)N[C@H]2C3CC4CC2C[C@](O)(C4)C3)n1` [Example 284], in that order: 56% and 86%.
